# Laboratory results published in paper PMC9025901, “New Genetic Bomb Trigger: Design, Synthesis, Molecular Dynamics Simulation, and Biological Evaluation of Novel BIBR1532-Related Analogs Targeting Telomerase against Non-Small Cell Lung Cancer” (Pharmaceuticals, 2022).
# How the values were obtained:
# [1] = biological target: T1, telomerase inside living cancer cells HCC44 (Homo sapiens, UniProt O14746); assay: Living-cell TRAP assay, HCC44; type: cell-based; conditions: percent of control cells, 10 µM, 48 h
# T1 construct: host or cells: HCC44
# T1 sequence (O14746 whole entry): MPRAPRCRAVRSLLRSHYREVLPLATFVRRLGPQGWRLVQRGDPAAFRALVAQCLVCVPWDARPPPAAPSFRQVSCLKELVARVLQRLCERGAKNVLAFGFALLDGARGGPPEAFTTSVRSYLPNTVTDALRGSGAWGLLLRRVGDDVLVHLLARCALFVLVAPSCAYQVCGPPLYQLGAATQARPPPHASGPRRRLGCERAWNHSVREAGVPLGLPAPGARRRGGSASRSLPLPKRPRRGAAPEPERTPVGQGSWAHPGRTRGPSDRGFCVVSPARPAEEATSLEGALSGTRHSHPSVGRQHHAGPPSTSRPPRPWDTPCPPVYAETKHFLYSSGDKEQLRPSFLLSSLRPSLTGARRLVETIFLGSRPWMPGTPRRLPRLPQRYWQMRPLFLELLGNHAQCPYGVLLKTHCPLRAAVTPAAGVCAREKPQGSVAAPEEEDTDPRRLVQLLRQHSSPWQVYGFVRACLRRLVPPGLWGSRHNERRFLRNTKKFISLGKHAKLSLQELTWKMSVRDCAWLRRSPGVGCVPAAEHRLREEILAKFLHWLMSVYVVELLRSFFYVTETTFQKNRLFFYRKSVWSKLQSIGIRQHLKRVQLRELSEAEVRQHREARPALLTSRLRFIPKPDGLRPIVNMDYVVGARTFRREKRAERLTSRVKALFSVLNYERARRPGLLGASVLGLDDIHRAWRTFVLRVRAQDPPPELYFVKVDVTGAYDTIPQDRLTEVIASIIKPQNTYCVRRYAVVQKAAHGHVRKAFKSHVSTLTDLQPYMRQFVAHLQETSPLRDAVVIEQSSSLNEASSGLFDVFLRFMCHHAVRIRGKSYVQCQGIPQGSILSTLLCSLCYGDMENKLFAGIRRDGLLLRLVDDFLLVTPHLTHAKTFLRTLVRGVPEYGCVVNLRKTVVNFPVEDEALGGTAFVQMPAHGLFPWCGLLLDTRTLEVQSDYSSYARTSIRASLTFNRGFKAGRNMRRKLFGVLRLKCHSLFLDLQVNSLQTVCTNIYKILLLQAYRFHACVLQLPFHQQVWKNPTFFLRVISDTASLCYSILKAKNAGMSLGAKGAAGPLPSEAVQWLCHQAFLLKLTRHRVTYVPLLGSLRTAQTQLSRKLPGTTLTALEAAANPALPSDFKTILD
# T1 sequence (O60832 whole entry partner): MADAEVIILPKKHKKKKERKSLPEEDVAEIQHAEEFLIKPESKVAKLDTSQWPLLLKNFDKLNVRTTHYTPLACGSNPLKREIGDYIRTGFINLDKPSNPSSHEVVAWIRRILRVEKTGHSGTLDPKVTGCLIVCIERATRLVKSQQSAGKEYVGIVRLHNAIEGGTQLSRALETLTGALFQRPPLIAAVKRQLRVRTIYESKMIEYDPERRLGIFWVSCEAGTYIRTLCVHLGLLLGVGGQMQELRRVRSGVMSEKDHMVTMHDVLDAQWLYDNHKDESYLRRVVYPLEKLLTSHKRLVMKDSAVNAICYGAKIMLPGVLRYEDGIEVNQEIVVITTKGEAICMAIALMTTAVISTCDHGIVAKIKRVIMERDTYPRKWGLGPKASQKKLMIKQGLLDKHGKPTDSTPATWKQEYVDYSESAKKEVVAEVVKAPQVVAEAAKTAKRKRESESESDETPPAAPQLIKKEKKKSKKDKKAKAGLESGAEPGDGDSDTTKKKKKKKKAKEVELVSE
# T1 sequence (Q9NX24 whole entry partner): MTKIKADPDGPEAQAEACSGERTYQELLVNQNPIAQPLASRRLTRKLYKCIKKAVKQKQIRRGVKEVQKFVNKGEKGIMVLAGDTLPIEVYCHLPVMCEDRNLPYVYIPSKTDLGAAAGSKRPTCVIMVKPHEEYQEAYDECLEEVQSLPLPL
# T1 sequence (Q9NPE3 whole entry partner): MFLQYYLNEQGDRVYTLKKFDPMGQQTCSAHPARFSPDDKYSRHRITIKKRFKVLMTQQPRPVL
# T1 sequence (Q9NY12 whole entry partner): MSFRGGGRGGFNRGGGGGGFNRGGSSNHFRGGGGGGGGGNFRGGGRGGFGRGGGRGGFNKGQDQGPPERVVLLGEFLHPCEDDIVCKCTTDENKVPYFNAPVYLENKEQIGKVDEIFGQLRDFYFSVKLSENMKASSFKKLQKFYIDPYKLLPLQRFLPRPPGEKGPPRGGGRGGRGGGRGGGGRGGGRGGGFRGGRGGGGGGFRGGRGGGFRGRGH
# T1 sequence (Q9BUR4 whole entry partner): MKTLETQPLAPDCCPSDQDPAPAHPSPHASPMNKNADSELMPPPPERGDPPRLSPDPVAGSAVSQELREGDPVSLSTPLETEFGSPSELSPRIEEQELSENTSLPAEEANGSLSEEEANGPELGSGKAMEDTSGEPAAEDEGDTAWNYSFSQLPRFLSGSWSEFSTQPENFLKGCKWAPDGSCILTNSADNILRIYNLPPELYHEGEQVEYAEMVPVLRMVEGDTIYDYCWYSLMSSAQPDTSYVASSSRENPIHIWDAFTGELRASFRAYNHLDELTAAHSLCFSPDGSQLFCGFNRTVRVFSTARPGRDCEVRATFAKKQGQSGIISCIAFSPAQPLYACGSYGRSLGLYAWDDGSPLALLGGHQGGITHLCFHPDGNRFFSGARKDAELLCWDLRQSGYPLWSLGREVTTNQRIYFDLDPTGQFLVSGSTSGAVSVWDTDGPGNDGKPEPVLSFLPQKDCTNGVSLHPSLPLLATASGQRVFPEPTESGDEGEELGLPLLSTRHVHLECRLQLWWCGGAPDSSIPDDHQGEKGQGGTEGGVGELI
# Experimental: (§1) The Telomeric Repeat Amplification Protocol (TRAP) [61] was used to evaluate the activity of telomerase, with some changes that we have previously described [62, 63]. A549 cells (human epithelial cell lung carcinoma, ATCC, Manassas, VA) were lysed in (10 mM) Tris-HCl, pH 7.5, (1 mM) EGTA, (1 mM) MgCl2, (5 mM) 2-mercaptoethanol, (0.1 mM) PMSF, (0.5%) CHAPS, and (10%) glycerol (Sigma-Aldrich, St. Louis, MO, USA) and centrifugation. The supernatants were kept at -80 °C. The BCA-1 Protein Assay Kit was used to assess the protein concentration in cell extracts (Sigma-Aldrich, St. Louis, MO, USA). […] To inactivate telomerase, the cells were elongated for 30 min at 37 °C and 10 min at 96 °C. Copy CX-primer was added to the elongation mixture along with 0.1 μL ([NT]) and 2.5 units Taq-polymerase, followed by the following PCR: 94 °C for 5 min; 30 cycles of 94 °C for 30 s, 50 °C for 30 s, and 72 °C for 40 s, and 72 °C for 5 min. TBE buffer and (12%) nondenaturing PAAG electrophoresis were used to visualize the PCR product. 10 μL of each sample was placed in each well of gel comb. The gels were stained with the SYBR Green I (Invitrogen, Grand Island, NY, USA), then photographed under the UV light in ChemiDocTM XRS imaging system and analyzed with GelAnalyzer 2010.
# [2] = biological target: T2, telomerase inside living cancer cells NCI-H23 (Homo sapiens, UniProt O14746); assay: Living-cell TRAP assay, NCI-H23; type: cell-based; conditions: percent of control cells, 10 µM, 48 h
# T2 construct: host or cells: NCI-H23
# T2 sequence (O14746 whole entry): as the sequence (O14746 whole entry) above
# T2 sequence (O60832 whole entry partner): as the sequence (O60832 whole entry partner) above
# T2 sequence (Q9NX24 whole entry partner): as the sequence (Q9NX24 whole entry partner) above
# T2 sequence (Q9NPE3 whole entry partner): as the sequence (Q9NPE3 whole entry partner) above
# T2 sequence (Q9NY12 whole entry partner): as the sequence (Q9NY12 whole entry partner) above
# T2 sequence (Q9BUR4 whole entry partner): as the sequence (Q9BUR4 whole entry partner) above
# Experimental: as §1
# HL-60(TB) = assay: NCI-60 in vitro anticancer screening (SRB); type: cell-based, human; conditions: Leukemia, 10 µM, 48 h
# SR = assay: NCI-60 in vitro anticancer screening (SRB); conditions: Leukemia, 10 µM, 48 h
# Experimental: (§2) The cancer screening panel’s human tumor 60 cell lines were cultured in the RPMI 1640 medium with (5%) fetal bovine serum and (2 mM) L-glutamine. For a screening experiment, cells were injected onto 96-well microtiter plates (100 µL), with plating densities varying from 5 to 40 × 10^3 cells per well, depending on different cell lines’ doubling times. Before introducing experimental drugs, the microtiter plates were incubated overnight at 37 °C, 95% air, 5% CO2, and 100% relative humidity after cell injection. TCA was employed to keep each cell line in place overnight, resembling a computation of the cell population for every cell line at the time of the addition of the drug. The experimental drugs were chilled after solubilization in DMSO at 400 times the final maximum test concentration. At the moment of the addition of the drug, the aliquot of the frozen concentrate was thawed and diluted to twice the required final maximum concentration with the complete medium containing (50 µg/mL) gentamicin. […] The bound dye was then solubilized with a (10 mM) trizma base, and absorbance was calculated at 515 nm on an automatic reader. […] The % growth of treated cells was established using seven absorbance measurements and compared to untreated control cells [57].
# A549/ATCC = assay: NCI-60 in vitro anticancer screening (SRB); conditions: Lung cancer (NSCLC), 10 µM, 48 h
# Experimental: as §2
# NCI-H322M = assay: NCI-60 in vitro anticancer screening (SRB); conditions: Lung cancer (NSCLC), 10 µM, 48 h
# Experimental: as §2
# HCT-116 = assay: NCI-60 in vitro anticancer screening (SRB); conditions: HCT-116, Colon cancer; 10 µM, 48 h
# Experimental: as §2
# HCT-15 = assay: NCI-60 in vitro anticancer screening (SRB); conditions: HCT-15, Colon cancer; 10 µM, 48 h
# Experimental: as §2
# KM12 = assay: NCI-60 in vitro anticancer screening (SRB); conditions: KM12, Colon cancer; 10 µM, 48 h
# Experimental: as §2
# SF-295 = assay: NCI-60 in vitro anticancer screening (SRB); conditions: SF-295, CNS cancer; 10 µM, 48 h
# Experimental: as §2
# LOX IMVI = assay: NCI-60 in vitro anticancer screening (SRB); conditions: Melanoma, 10 µM, 48 h
# Experimental: as §2
# MALME-3M = assay: NCI-60 in vitro anticancer screening (SRB); conditions: Melanoma, 10 µM, 48 h
# Experimental: as §2
# M14 = assay: NCI-60 in vitro anticancer screening (SRB); conditions: M14, Melanoma; 10 µM, 48 h
# Experimental: (§3) The cancer screening panel’s human tumor 60 cell lines were cultured in the RPMI 1640 medium with (5%) fetal bovine serum and (2 mM) L-glutamine. For a screening experiment, cells were injected onto 96-well microtiter plates (100 µL), with plating densities varying from 5 to 40 × 10^3 cells per well, depending on different cell lines’ doubling times. Before introducing experimental drugs, the microtiter plates were incubated overnight at 37 °C, 95% air, 5% CO2, and 100% relative humidity after cell injection. TCA was employed to keep each cell line in place overnight, resembling a computation of the cell population for every cell line at the time of the addition of the drug. The experimental drugs were chilled after solubilization in DMSO at 400 times the final maximum test concentration. At the moment of the addition of the drug, the aliquot of the frozen concentrate was thawed and diluted to twice the required final maximum concentration with the complete medium containing (50 µg/mL) gentamicin. The required final concentration of the drug (10 µM) was reached by adding 100 µL aliquots of these definite dilutions of the drug to suitable microtiter wells previously holding a medium of 100 µL. […] The bound dye was then solubilized with a (10 mM) trizma base, and absorbance was calculated at 515 nm on an automatic reader. […]
# MDA-MB-435 = assay: NCI-60 in vitro anticancer screening (SRB); conditions: MDA-MB-435, Melanoma; 10 µM, 48 h
# Experimental: as §3
# SK-MEL-2 = assay: NCI-60 in vitro anticancer screening (SRB); conditions: SK-MEL-2, Melanoma; 10 µM, 48 h
# Experimental: as §3
# UACC-62 = assay: NCI-60 in vitro anticancer screening (SRB); conditions: UACC-62, Melanoma; 10 µM, 48 h
# Experimental: as §2
# OVCAR-3 = assay: NCI-60 in vitro anticancer screening (SRB); conditions: OVCAR-3, Ovarian cancer; 10 µM, 48 h
# Experimental: as §2
# SK-OV-3 = assay: NCI-60 in vitro anticancer screening (SRB); conditions: SK-OV-3, Ovarian cancer; 10 µM, 48 h
# Experimental: as §2
# ACHN = assay: NCI-60 in vitro anticancer screening (SRB); conditions: Renal cancer, 10 µM, 48 h
# Experimental: as §3
# RXF 393 = assay: NCI-60 in vitro anticancer screening (SRB); conditions: RXF 393, Renal cancer; 10 µM, 48 h
# Experimental: as §3
# SN12C = assay: NCI-60 in vitro anticancer screening (SRB); conditions: Renal cancer, 10 µM, 48 h
# Experimental: as §2
# UO-31 = assay: NCI-60 in vitro anticancer screening (SRB); conditions: UO-31, Renal cancer; 10 µM, 48 h
# Experimental: as §2
# PC-3 = assay: NCI-60 in vitro anticancer screening (SRB); conditions: PC-3, Prostate cancer; 10 µM, 48 h
# Experimental: as §2
# DU-145 = assay: NCI-60 in vitro anticancer screening (SRB); conditions: DU-145, Prostate cancer; 10 µM, 48 h
# Experimental: as §2
# MCF7 = assay: NCI-60 in vitro anticancer screening (SRB); conditions: MCF7, Breast cancer; 10 µM, 48 h
# Experimental: as §3
# MDA-MB-231/ATCC = assay: NCI-60 in vitro anticancer screening (SRB); conditions: Breast cancer, 10 µM, 48 h
# Experimental: as §3
# HS 578T = assay: NCI-60 in vitro anticancer screening (SRB); conditions: Breast cancer, 10 µM, 48 h
# Experimental: as §3
# BT-549 = assay: NCI-60 in vitro anticancer screening (SRB); conditions: BT-549, Breast cancer; 10 µM, 48 h
# Experimental: as §3
# T-47D = assay: NCI-60 in vitro anticancer screening (SRB); conditions: Breast cancer, 10 µM, 48 h
# Experimental: as §3
# MDA-MB-468 = assay: NCI-60 in vitro anticancer screening (SRB); conditions: MDA-MB-468, Breast cancer; 10 µM, 48 h
# Experimental: as §2
smiles,measurement,setting,value
"N#C/C(=C\c1ccc2ccccc2c1)C(=O)Nc1sc2c(c1C#N)CCCC2 [Compound 36b, (2E)-2-Cyano-N-(3-cyano-4,5,6,7-tetrahydro-1-benzothiophen-2-yl)-3-(naphthalen-2-yl)prop-2-enamide]",% Telomerase Activity in Cancer Cells,[1],54.4 ± 4.4%
same,% Telomerase Activity in Cancer Cells,[2],25.1 ± 3.2%
same,Growth Percent,HL-60(TB),99.47%
same,Growth Percent,SR,95.72%
same,Growth Percent,A549/ATCC,100.18%
same,Growth Percent,NCI-H322M,98.58%
same,Growth Percent,HCT-116,100.18%
same,Growth Percent,HCT-15,99.95%
same,Growth Percent,KM12,101.43%
same,Growth Percent,SF-295,95.53%
same,Growth Percent,LOX IMVI,102.88%
same,Growth Percent,MALME-3M,109.97%
same,Growth Percent,M14,94.57%
same,Growth Percent,MDA-MB-435,101.92%
same,Growth Percent,SK-MEL-2,100.31%
same,Growth Percent,UACC-62,91.73%
same,Growth Percent,OVCAR-3,98.78%
same,Growth Percent,SK-OV-3,89.18%
same,Growth Percent,ACHN,103.29%
same,Growth Percent,RXF 393,111.16%
same,Growth Percent,SN12C,100.72%
same,Growth Percent,UO-31,81.95%
same,Growth Percent,PC-3,104.77%
same,Growth Percent,DU-145,99.89%
same,Growth Percent,MCF7,92.41%
same,Growth Percent,MDA-MB-231/ATCC,92.15%
same,Growth Percent,HS 578T,103.54%
same,Growth Percent,BT-549,107.71%
same,Growth Percent,T-47D,97.26%
same,Growth Percent,MDA-MB-468,90.36%
